How the values were obtained:
isolated rat left atria = assay: Ex-vivo organ study: functional refractory period in isolated rat left atria; details: conc 10^−5 mol/l
Text: The compounds were checked for their effect on the force of contraction, stimulation threshold and for the Functional Refractory Period (FRP) in isolated rat left atria (Rat LA). Rat left atria functionally express the Kv4.3 ion channel, producing the Ito current of the action potential. […] The guinea pig action potential is dominated by hERG like ion channels for the refractory currents. Consequently, activity of hERG channels in vivo should be seen in GP pap muscle preparations.
Left atria were mounted vertically in a two-chambered organ bath containing 100 ml of buffer solution (in mM: NaH2PO4 0.6, MgSO4 0.6, KCl 4.7, NaHCO3 25, glucose 4.5, NaCl-120, CaCl2 2.4). […] The isometric force of the preparations was measured by force transducers, connected to amplifiers, documented by a pen recorder and fed into a computer for evaluation. Force of contraction (FC), threshold stimulus (TS) and the functional refractory period (FRP) were measured at baseline (pre), 20 min after addition of compound, and after washout at the end of the experiment. Threshold stimulus, representing excitability of the tissue, was assessed by varying the voltage applied for electrical stimulation. […] The functional refractory period, representing the time needed for repolarization, was assessed by applying extra stimuli at varying time intervals from the preceding regular pacing stimulus. […]

[1] = system: arterially perfused rabbit left ventricular wedge preparation; assay: Arterially perfused rabbit left ventricular wedge preparation (QT, Tp-e, EAD, TdP); details: 2000 ms BCL; for Tp-e: control 52.2 ± 3.7; for QT: control 288.2 ± 11.1; for EAD: events per preparations
Text: The compounds were checked for their effect on the QT interval, the Tp-e interval (Yan and Antzelevitch, Circulation 1998; 98:1928-1936; Yan et al, Circulation 2001; 103:2851-2856) that approximates closely to transmural dispersion of repolarization (TDR), the Tp-e/QT ratio that reflects the potential of phase 2 early afterdepolarization (EAD) development in sub- and/or endocardium (Joshi et al, Journal of Electrocardiology, 2004, 34 (suppl): 7-14) and the phenomena dependent on phase 2 EAD (i.e. R on T extrasystole and TdP) in the isolated arterially-perfused rabbit ventricular wedge preparation.
Female rabbits weighting 2.5-3 kg were anticoagulated with heparin and anesthetized with pentobarbital (30-35 mg/kg, i.v.). The chest was opened via left thoracotomy, and the heart was excised and placed in a cardioplegic solution consisting of cold (4° C.) normal Tyrode s solution (in mmol/l: NaCl 129, KCl 4.0, CaCl2 1.8, NaH2PO4 0.9, MgSO4 0.5, NaHCO3 20, glucose 5.5). A transmural wedge, approximately 1.5 cm wide and 2-3 cm long, was dissected from the left ventricle and rapidly cannulated via the left anterior descending artery or the circumflex artery and perfused with cardioplegic solution for <4 min. The preparation was then transferred to a tissue bath (100 ml) and perfused with warm (35.7±0.1° C.) Tyrode's solution containing 4 mM K^+ buffered ? with 95% O2 and 5% CO2. Perfusion pressure was set at 40-50 mmHg by using a peristaltic pump. The preparation was paced at a basic cycle length of 1000 ms and allowed to equilibrate for approximately 1 h, the time necessary to achieve electrical stability. Electrical pacing was delivered via bipolar silver electrodes insulated except at the tips and applied to the endocardial surface.
After the preparation equilibrated for one hour, the experiment was initiated. During the infusion of the compounds, the preparation was stimulated from the endocardium at basic cycle lengths of 1000 ms from the beginning of the infusion to the 20th minute and then at 2000 ms from the 20th minute to the 30th minute. At the end of each pacing cycle length, the ECG signal was sampled for 1 to 2 min at a sampling rate of 1562 Hz (Spike 2 software, CED, England)
A transmural ECG signal was recorded in all experiments. The QT interval was defined as the time from the onset of the QRS to the point at which the final downslope of the T wave across isoelectric line. The QT interval values were derived from the mean values of four consecutive beats. (Yan and Antzelevitch, Circulation 1998; Yan et al, Circulation 2001; 103:2851-2856; and Antzelevitch, Journal of Electrocardiology 2004; 37(Suppl): 15-24).

## COc1ccccc1Nc1nc(C)c(C(=O)N[C@H]2CCC[C@@H]2OCc2ccccc2)s1 [Compound 68, 2-(2-methoxy-phenylamino)-4-methyl-thiazole-5-carboxylic acid (1S,2S)-2-(benzyloxycyclopent-1-yl) amide]
Isolated rat left atria
  dFRP Rat: 13 ms
[1]; 1 μmol/l
  TdP Score: 0.0 ± 0.0
  Tp-e: 52.0 ± 3.9 ms
  QT: 287.6 ± 11.4 ms
  EAD: 0/5
[1]; 3 μmol/l
  TdP Score: 0.0 ± 0.0
  Tp-e: 51.4 ± 4.0 ms
  QT: 286.6 ± 12.0 ms
  EAD: 0/5
